What all share (type): in vitro ADME
The target in one data set is T1, porcine pepsin (Sus scrofa, UniProt P00791).
T1 construct: purchased Sigma-Aldrich (Madrid, Spain)
In words: In vitro simulated gastric digestion (G60). As to conditions: 60 min. The protocol:
For the in vitro simulated peptide GI digestion, a two-stage hydrolysis process was carried out according to Martos et al.. […] was dissolved in simulated gastric fluid (35 mM NaCl at pH 2 for 15 min) and posteriorly subjected to digestion by porcine pepsin (E.C. 3.4.23.1, 3440 units/mg) at an enzyme/substrate ratio of 1: 20 w/w at 37 °C for 60 min. Gastric digestion with pepsin was stopped by adding 1 M NaHCO3 and pH was adjusted to 7.0 with NaOH 1 M (final protein concentration of 5 mg/mL). Aliquots of this gastric digest were collected (G60) and stored at −20 °C until analysis. Duodenal digestions were performed by using, as the starting material, the obtained gastric digests, with the addition of 1 M CaCl2, 0.25 M bis-Tris pH 6.5, 0.25 M bis-Tris pH 6.5, and a 0.125 M bile salts mixture containing equimolar quantities of sodium taurocholate and glycodeoxycholic acid. Posteriorly, the duodenal enzymes trypsin (EC 232-650-8, 10100 BAEE units/mg protein), α-chymotrypsin (EC 232-671-2; 55 units/mg protein), porcine pancreatic lipase (EC 232-619-9) and colipase (EC 259-490-1), prepared in 35 mM NaCl adjusted to pH 7, were added to the solution. Duodenal digestion was carried out at pH 7, 37 °C during 60 (D60). Then, enzymes were inactivated by heating at 95 °C for 10 min in a water bath, followed by cooling to room temperature. Triplicates of aliquots at each time point were collected and stored at −20 °C until analysis.
(§1) Samples obtained from in vitro peptide simulated digestion and Caco-2 monolayers were diluted 10 times with water (0.1% FA) and centrifuged (15,000 rpm, 15 min, 4 °C). Supernatants were directly analyzed by UHPLC-HRMS to avoid the loss of polar peptide fragments. Extensive clean-up or pre-concentration procedures were not necessary due to the high concentration of peptide and low matrix complexity than plasma samples.
(§2) The obtained purified solutions from plasma and peptide digests G60 and D60 and from AP and BL chambers in Caco-2 experiment were analyzed using a UHPLC 1290 Infinity II Series coupled to a QqQ 6490 Series (Agilent Technologies, Santa Clara, CA, USA) for tandem mass experiments or a qTOF 6550 Series (Agilent Technologies) for high-resolution mass spectrometry experiments. Chromatographic separation of peptide or their fragments were performed using a Kinetex 2.6 µm EVO C18 column (150 × 2.1 mm, […]) from (Phenomenex, Torrance, USA) as stationary phase and water containing 0.1% formic acid (solvent A) and acetonitrile (solvent B) as mobile phase. The separation was performed in gradient elution as follows: isocratic; 0–0.5 min, 2 % B; 0.5–1 min, 2–6% B; 1–5 min, 6–15% B; 5–6 min, 15–35% B; 6–10 min, 35–98% B; 10–12 min, 98% B isocratic; 12–12.10, 98–2% B. For all runs, 10 μL of the sample (4 °C) was injected, and the flow rate was 0.350 mL/min and the column temperature was 25 °C.
(§3) For in vitro simulated digestion experiments and Caco-2 monolayer samples, qTOF instrument was used to investigate the presence of unknown peptide fragments and previously in silico predicted peptide fragments by means of its accurate mass. Peptide and its fragments were semi-quantified using the chromatographic peak area observed in the extracted ion chromatograms using a 20 ppm mass window.

Data set [1] relates to trypsin, α-chymotrypsin, porcine pancreatic lipase and colipase. The data set can be described thus: In vitro simulated duodenal digestion (D60). As to conditions: 60 min simulated duodenal digestion, pH 7, 37 °C. The procedure: For the in vitro simulated peptide GI digestion, a two-stage hydrolysis process was carried out according to Martos et al.. […] was dissolved in simulated gastric fluid (35 mM NaCl at pH 2 for 15 min) and posteriorly subjected to digestion by porcine pepsin (E.C. 3.4.23.1, 3440 units/mg) at an enzyme/substrate ratio of 1: 20 w/w at 37 °C for 60 min. Gastric digestion with pepsin was stopped by adding 1 M NaHCO3 and pH was adjusted to 7.0 with NaOH 1 M (final protein concentration of 5 mg/mL). Aliquots of this gastric digest were collected (G60) and stored at −20 °C until analysis. Duodenal digestions were performed by using, as the starting material, the obtained gastric digests, with the addition of 1 M CaCl2, 0.25 M bis-Tris pH 6.5, 0.25 M bis-Tris pH 6.5, and a 0.125 M bile salts mixture containing equimolar quantities of sodium taurocholate and glycodeoxycholic acid. […]
Samples obtained from in vitro peptide simulated digestion and Caco-2 monolayers were diluted 10 times with water (0.1% FA) and centrifuged (15,000 rpm, 15 min, 4 °C). Supernatants were directly analyzed by UHPLC-HRMS to avoid the loss of polar peptide fragments. […]

Another data set has as its system Caco-2 cell monolayers. In words: Transepithelial transport through Caco-2 monolayer. As to conditions: 1 h, 37 °C, UHPLC-HRMS. The procedure: Caco-2 cells were obtained from Sigma-Aldrich and were grown Dulbecco’s modified minimum essential medium (DMEM), supplemented with 20% fetal bovine serum (FBS), […] L-glutamine, 100 U/mL penicillin and 100 μg/mL streptomycin at 37 °C in and 5% CO2. Cells were seeded onto Transwell inserts permeable membrane support (0.4 µm pore, 24 mm diameter, 4.7 cm^2 grown surface from Merck Co., Bedford, MA, USA) placed in six-well plates. The seeding density was 12,000 cell/cm^2. The medium was replaced every 2–3 days and cells were growing for 21 days. On the 21st day of the procedure, the integrity of the Caco-2 monolayer was assessed by the measurement of transepithelial electrical resistance (TEER) using a Millicell ERS-2 voltammeter (EMD Millipore, Darmstadt, Germany) selecting the ones with TEER values higher than 200 Ω/cm^2.
For the transport study, Caco-2 cells, maintained in DMEM, were gently rinsed with Hank’s balanced salt solution (HBSS) and equilibrated for 20 min at 37 °C prior to the transport study. Then, it was evaluated the transepithelial transport of the peptide […] (1 mM) dissolved in HBSS and the digests obtained in the in vitro simulated digestion (G60 and D60). […] or the peptide digests G60 and D60 were added to the apical (AP) chamber and were incubated for 1 h at 37 °C. After this time, triplicates of the AP chamber content and the basolateral (BL) chamber content were taken and stored at −80 °C until ultra-high performance liquid chromatography-high resolution mass spectrometry (UHPLC-HRMS) analyses.
as §1, §2, §3
For orientation: Passage across Caco-2 layers is used to estimate intestinal permeability.

Ends that are not written are not given here.

T1 sequence (P00791 60-385): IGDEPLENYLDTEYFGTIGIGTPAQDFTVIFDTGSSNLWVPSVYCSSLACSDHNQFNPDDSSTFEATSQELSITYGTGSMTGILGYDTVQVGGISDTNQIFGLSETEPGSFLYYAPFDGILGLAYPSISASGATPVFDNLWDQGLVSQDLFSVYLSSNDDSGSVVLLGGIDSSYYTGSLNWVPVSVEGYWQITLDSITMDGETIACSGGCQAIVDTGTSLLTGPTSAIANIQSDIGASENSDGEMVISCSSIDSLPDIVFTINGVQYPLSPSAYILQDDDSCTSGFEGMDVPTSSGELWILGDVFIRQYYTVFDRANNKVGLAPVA

Regarding AVFQHNCQE, on porcine pepsin (pepsin, pH 2, 37 °C, most intense signal in G60 was the native peptide), the “Resistance to gastric digestion” value is on record as “resistant to gastric digestion”. Further, on porcine pepsin (simulated gastric fluid 35 mM NaCl pH 2, porcine pepsin enzyme/substrate 1:20 w/w, 37 °C, UHPLC-HRMS extracted ion chromatogram, 20 ppm window, semi-quantified, triplicate aliquots), the “Area G60 (chromatographic peak area)” value was 5,236,186. Further, the “Fate after duodenal digestion” value in data set [1] is recorded as “mainly hydrolyzed into free amino acid residues”. The “G60 % Transport” value in the data set with Caco-2 cell monolayers (21 days, TEER > 200 Ω/cm^2, gastric digest G60 added to apical chamber, AP to BL, HBSS, content in basolateral chamber in comparison to apical chamber, triplicates) is given as 0.25%. In the data set on Caco-2 cell monolayers (native peptide 1 mM in HBSS or digests in apical chamber), the “Absorption through the intestinal monolayer” value is given as “not absorbed through the intestinal monolayer”.
